Legend:
[1] = tested on: IL-1β (LPS-stimulated PBMCs); experiment: IL-1β expression in LPS-stimulated PBMCs in the presence of MIF inhibitors (ELISA); assay type: cell-based; details: Homo sapiens, PBMC, LPS 10 ng/ml and LPS+MIF, ELISA of supernatant
Procedure: (§1) Example QQ: Macrophage Migration Inhibitory Factor (MIF) as a Drug Target Assay Conditions
(§2) a) PBMC Isolation: • Heparinized blood (10 ml) was diluted with equal volume of phosphate buffer saline (PBS). To the Ficoll solution (5 ml) add 5 ml of blood:PBS mixture and centrifuge at 1600 rpm for 30 minutes. Take the buffy coat and wash with PBS at 1200 rpm for 5 minutes (twice). After two wash with PBS, the PBMCs were washed with RPMI medium. The PBMC were counted and plated in 96 well plates (1×10^6 cells/well).
(§3) b) Expression of TNF-α and […] in PBMCs in the Presence of MIF Inhibitors: • After overnight incubation, the cells were treated with different concentration of MIF inhibitors. After 6 hr, cells were treated with LPS (10 ng/ml) and LPS+MIF combination (10 ng/ml) and further incubated for overnight. PBMCs treated with 10 ng/ml of LPS and MIF in the presence of different concentrations of test compounds. After the incubation period, the supernatant were collected and human TNF-α and IL-1β were determined using the ELISA kits (R&D Systems).

[2] = tested on: TNF-α (LPS-stimulated PBMCs); experiment: TNF-α expression in LPS-stimulated PBMCs in the presence of MIF inhibitors (ELISA); assay type: cell-based; details: Homo sapiens, PBMC, LPS 10 ng/ml and LPS+MIF, ELISA of supernatant
Procedure: as §1, §2, §3

CCOC(=O)c1c(O[C@H]2CO[C@H]3[C@@H]2OC[C@@H]3O)c2ccccc2n(Cc2ccccc2)c1=O [Example E, ethyl 4-[[(3S,3aR,6S,6aR)-3-hydroxy-2,3,3a,5,6,6a-hexahydrofuro[3,2-b]furan-6-yl]oxy]-1-benzyl-2-oxo-1,2-dihydroquinoline-3-carboxylate]
IC50 [1]: > 500 nM | IC50 [2]: > 500 nM

N#Cc1c(O[C@H]2CO[C@H]3[C@@H]2OC[C@@H]3OC(=O)CCl)c2ccccc2n(Cc2ccc(F)cc2)c1=O [Example Q, [(3S,3aR,6S,6aR)-3-[[3-cyano-1-[(4-fluorophenyl)methyl]-2-oxo-4-quinolyl]oxy]-2,3,3a,5,6,6a-hexahydrofuro[3,2-b]furan-6-yl] 2-chloroacetate]
IC50 [1]: > 100 nM | IC50 [2]: > 100 nM

CCOC(=O)c1c(O[C@H]2CO[C@H]3[C@@H]2OC[C@@H]3OC(C)=O)c2ccccc2n(Cc2ccccc2)c1=O [Example F, ethyl 4-[[(3S,3aR,6S,6aR)-6-acetoxy-2,3,3a,5,6,6a-hexahydrofuro[3,2-b]furan-3-yl]oxy]-1-benzyl-2-oxo-1,2-dihydroquinoline-3-carboxylate]
IC50 [1]: > 10000 nM | IC50 [2]: > 10000 nM

CC(=O)O[C@H]1CO[C@H]2[C@@H]1OC[C@@H]2Oc1c(C#N)c(=O)n(Cc2ccccc2)c2ccccc12 [Example L, [(3S,3aR,6S,6aR)-3-[(1-benzyl-3-cyano-2-oxo-4-quinolyl)oxy]-2,3,3a,5,6,6a-hexahydrofuro[3,2-b]furan-6-yl] acetate]
IC50 [1]: > 1000 nM | IC50 [2]: > 1000 nM

N#Cc1c(O[C@H]2CO[C@H]3[C@@H]2OC[C@@H]3OC(=O)CCl)c2ccccc2n(Cc2ccccc2)c1=O [Example M, [(3S,3aR,6S,6aR)-3-[(1-benzyl-3-cyano-2-oxo-4-quinolyl)oxy]-2,3,3a,5,6,6a-hexahydrofuro[3,2-b]furan-6-yl] 2-chloroacetate]
IC50 [1]: > 500 nM | IC50 [2]: > 500 nM

CCOC(=O)c1c(O[C@H]2CO[C@H]3[C@@H]2OC[C@@H]3OC(=O)CCl)c2ccccc2n(Cc2ccc(F)cc2)c1=O [Example J, ethyl 4-[[(3S,3aR,6S,6aR)-6-(2-chloroacetyl)oxy-2,3,3a,5,6,6a-hexahydrofuro[3,2-b]furan-3-yl]oxy]-1-[(4-fluorophenyl)methyl]-2-oxo-1,2-dihydroquinoline-3-carboxylate]
IC50 [1]: > 100 nM | IC50 [2]: > 100 nM

N#Cc1c(Nc2ccc(O[C@H]3CO[C@H]4[C@@H]3OC[C@@H]4O)c(Cl)c2)c2ccccc2n(Cc2ccccc2)c1=O [Example R, 4-[4-[[(3S,3aR,6S,6aR)-3-hydroxy-2,3,3a,5,6,6a-hexahydrofuro[3,2-b]furan-6-yl]oxy]-3-chloro-anilino]-1-benzyl-2-oxo-1,2-dihydroquinoline-3-carbonitrile]
IC50 [1]: > 100 nM | IC50 [2]: > 100 nM

N#Cc1c(O[C@H]2CO[C@H]3[C@@H]2OC[C@@H]3O)c2ccccc2n(Cc2ccc(F)cc2)c1=O [Example N, 4-[[(3S,3aR,6S,6aR)-3-hydroxy-2,3,3a,5,6,6a-hexahydrofuro[3,2-b]furan-6-yl]oxy]-1-[(4-fluorophenyl)methyl]-2-oxo-1,2-dihydroquinoline-3-carbonitrile]
IC50 [1]: > 10000 nM | IC50 [2]: > 100 nM

CCOC(=O)c1c(O[C@H]2CO[C@@H]3C=CO[C@H]23)c2ccccc2n(CC)c1=O [Example D, ethyl 4-[[(3S,3aS,6aR)-2,3,3a,6a-tetrahydrofuro[3,2-b]furan-3-yl]oxy]-1-ethyl-2-oxo-1,2-dihydroquinoline-3-carboxylate]
IC50 [1]: > 10000 nM | IC50 [2]: > 10000 nM

CCOC(=O)c1c(O[C@H]2CO[C@H]3[C@@H]2OC[C@@H]3OC(C)=O)c2ccccc2n(CC)c1=O [Example B, ethyl 4-[[(3S,3aR,6S,6aR)-6-acetoxy-2,3,3a,5,6,6a-hexahydrofuro[3,2-b]furan-3-yl]oxy]-1-ethyl-2-oxo-1,2-dihydroquinoline-3-carboxylate]
IC50 [1]: > 10000 nM | IC50 [2]: > 10000 nM

N#Cc1c(O[C@H]2CO[C@H]3[C@@H]2OC[C@@H]3O)c2ccccc2n(Cc2ccccc2)c1=O [Example K, 4-[[(3S,3aR,6S,6aR)-3-hydroxy-2,3,3a,5,6,6a-hexahydrofuro[3,2-b]furan-6-yl]oxy]-1-benzyl-2-oxo-1,2-dihydroquinoline-3-carbonitrile]
IC50 [1]: > 100 nM | IC50 [2]: > 100 nM

N#Cc1c(O[C@H]2CO[C@H]3[C@@H]2OC[C@@H]3OC(=O)c2ccccc2)c2ccccc2n(Cc2ccc(F)cc2)c1=O [Example P, [(3S,3aR,6S,6aR)-3-[[3-cyano-1-[(4-fluorophenyl)methyl]-2-oxo-4-quinolyl]oxy]-2,3,3a,5,6,6a-hexahydrofuro[3,2-b]furan-6-yl] benzoate]
IC50 [1]: > 10000 nM | IC50 [2]: > 10000 nM

CCOC(=O)c1c(O[C@H]2CO[C@H]3[C@@H]2OC[C@@H]3O)c2ccccc2n(CC)c1=O [Example A, ethyl 4-[[(3S,3aR,6S,6aR)-3-hydroxy-2,3,3a,5,6,6a-hexahydrofuro[3,2-b]furan-6-yl]oxy]-1-ethyl-2-oxo-1,2-dihydroquinoline-3-carboxylate]
IC50 [1]: > 1000 nM | IC50 [2]: > 1000 nM

CCOC(=O)c1c(O[C@H]2CO[C@H]3[C@@H]2OC[C@@H]3OC(=O)CCl)c2ccccc2n(CC)c1=O [Example C, ethyl 4-[[(3S,3aR,6S,6aR)-6-(2-chloroacetyl)oxy-2,3,3a,5,6,6a-hexahydrofuro[3,2-b]furan-3-yl]oxy]-1-ethyl-2-oxo-1,2-dihydroquinoline-3-carboxylate]
IC50 [1]: > 500 nM | IC50 [2]: > 500 nM

CCOC(=O)c1c(O[C@H]2CO[C@@H]3C=CO[C@H]23)c2ccccc2n(Cc2ccccc2)c1=O [Example H, ethyl 4-[[(3S,3aS,6aR)-2,3,3a,6a-tetrahydrofuro[3,2-b]furan-3-yl]oxy]-1-benzyl-2-oxo-1,2-dihydroquinoline-3-carboxylate]
IC50 [1]: > 10000 nM | IC50 [2]: > 10000 nM

CCOC(=O)c1c(O[C@H]2CO[C@H]3[C@@H]2OC[C@@H]3OC(=O)CCl)c2ccccc2n(Cc2ccccc2)c1=O [Example G, ethyl 4-[[(3S,3aR,6S,6aR)-6-(2-chloroacetyl)oxy-2,3,3a,5,6,6a-hexahydrofuro[3,2-b]furan-3-yl]oxy]-1-benzyl-2-oxo-1,2-dihydroquinoline-3-carboxylate]
IC50 [1]: > 100 nM | IC50 [2]: > 100 nM

CCOC(=O)c1c(O[C@H]2CO[C@H]3[C@@H]2OC[C@@H]3O)c2ccccc2n(Cc2ccc(F)cc2)c1=O [Example I, ethyl 4-[[(3S,3aR,6S,6aR)-3-hydroxy-2,3,3a,5,6,6a-hexahydrofuro[3,2-b]furan-6-yl]oxy]-1-[(4-fluorophenyl)methyl]-2-oxo-1,2-dihydroquinoline-3-carboxylate]
IC50 [1]: > 500 nM | IC50 [2]: > 500 nM

CCOC(=O)c1c(Nc2ccc(O[C@H]3CO[C@H]4[C@@H]3OC[C@@H]4O)c(Cl)c2)c2ccccc2n(Cc2ccccc2)c1=O [Example S, ethyl 4-[4-[[(3S,3aR,6S,6aR)-3-hydroxy-2,3,3a,5,6,6a-hexahydrofuro[3,2-b]furan-6-yl]oxy]-3-chloro-anilino]-1-benzyl-2-oxo-1,2-dihydroquinoline-3-carboxylate]
IC50 [1]: > 500 nM | IC50 [2]: > 500 nM

CC(=O)O[C@H]1CO[C@H]2[C@@H]1OC[C@@H]2Oc1c(C#N)c(=O)n(Cc2ccc(F)cc2)c2ccccc12 [Example O, [(3S,3aR,6S,6aR)-3-[[3-cyano-1-[(4-fluorophenyl)methyl]-2-oxo-4-quinolyl]oxy]-2,3,3a,5,6,6a-hexahydrofuro[3,2-b]furan-6-yl] acetate]
IC50 [1]: > 10000 nM | IC50 [2]: > 100 nM
